Data on 7 molecules can be found in patent US20020090619A1, “Methods for identifying mitochondrial divalent cation transporters” (priority 2000, published 2002).

In one data set the test system is intact yeast. As to the kind of experiment: Aequorin luminescence in intact yeast cells expressing mitochondrially targeted aequorin. Type of data set: cell-based, Saccharomyces cerevisiae. The note with it: intact cells. How it is done:
Yeast cells (strain X4003-5B; leu2, ade1, his4, met2, ura3, trp5, gal1) obtained from the Yeast Genetic Stock Center (Berkeley, Calif.) were transformed with the pYES2 plasmid, encoding the human mitochondrially targeted apoaequorin fragment, using the lithium acetate method (Sambrook et al., 1989), and INVSc1 cells were transformed with the pGK plasmid encoding the yeast mitochondrially targeted apoaequorin fragment. Selection was carried out on plates prepared with synthetic complete medium minus uracil (SC-U) (Sherman, 1991 Meths. Enzymol. 194:3). Transformed colonies were cultured in a small volume of SC-U and assayed for aequorin activity in vitro as described by Nakajima et al. (1991 Proc. Nat. Acad. Sci. USA 88:6878). Briefly, the cells were harvested by centrifugation, resuspended in lysis buffer (50 mM Tris, 2 mM EDTA, 0.5 mM PMSF, pH 8 w/NaOH), disrupted by vortexing with glass beads, and then treated with 0.1% Triton X-100 to release apoaequorin from the mitochondria. Following centrifugation, 200 μl aliquots of the supernatants were incubated with coelenterazine (2.5 μM) and 2-mercaptoethanol (2 μl), for ˜3 hr while standing on ice, to form the luminescent aequorin from its apoprotein. The coelenterazine cofactor is highly hydrophobic and readily permeates yeast cell membranes (Nakajima et al., 1991) such that reconstitution was conducted without disrupting the cells in some cases. 2-mercaptoethanol was omitted when intact cells were employed. A transformant which yielded high luminescence (named X4003-5B-AEQmito1) was selected for further characterization.
For preculture, the transformant was inoculated into 50 ml of SC-U plus 2% glucose, and incubated in an air shaker at 180 rpm and 30° C. At 24 hr, the preculture was transferred to 500 ml of a medium containing 1% yeast extract, 2% peptone, 2% lactate, 1% galactose, 0.012% adenine, pH 5 w/NaOH, and growth was continued under conditions which were otherwise the same. […]
Luminescence measurements were carried out in 6×50 mm culture tubes, using a total volume of 0.3 ml, and were started by injection of 5-20 μl of mitochondria or cells. […] For each value, the ratio of observed luminescence (L) to the potential luminescence remaining (Lmax) was calculated, and compared to a calibration curve which relates this ratio to the free Ca^2+ concentration. […] The total luminescence available initially (Ltotal) must be known and was determined in separate experiments, wherein a saturating Ca^2+ concentration (20 μM) is employed to discharge the aequorin completely. This value allows Lmax to be calculated at any time, as Ltotal minus the sum of luminescence that already occurred. […]

The subject of data set [1] is isolated yeast mitochondria. As to the kind of experiment: Ca2+ transport in isolated yeast mitochondria expressing aequorin (luminescence). The data set is classed as biochemical, Saccharomyces cerevisiae. The conditions noted are these: 2 μM A23187, medium containing no added Ca^2+, FIG. 22B. How it is done: For preculture, the transformant was inoculated into 50 ml of SC-U plus 2% glucose, and incubated in an air shaker at 180 rpm and 30° C. At 24 hr, the preculture was transferred to 500 ml of a medium containing 1% yeast extract, 2% peptone, 2% lactate, 1% galactose, 0.012% adenine, pH 5 w/NaOH, and growth was continued under conditions which were otherwise the same. Cells were harvested after an additional 24 hr, spheroplasts were prepared using zymolyase, and mitochondria were isolated by the method of Daum et al. (1982) as previously described (Jung et al., 1997). The final pellet was resuspended at ˜20 mg protein/ml in 0.6 M mannitol, 20 mM HEPES (K^+ salt, pH 6.8). Apoaequorin in the intact or disrupted mitochondria was reconstituted by incubation with coelenterazine as described above for cells.
For most experiments, the mitochondria were present at 0.4 mg protein/ml in a standard medium that contained 0.3 M KCl, 20 mM HEPES, (K^+ salt, pH 7.10), 10 mM KH2PO4, 2 mM EGTA, and 2 mM MgCl2. Other additions are described in greater detail below. Ca^2+ buffers were formed by adding various amounts of CaCl2 to this EGTA containing medium. The free Ca^2+ concentrations which resulted were calculated using a computer program (Brooks et al., 1992 Anal. Biochem. 201:119).
Luminescence measurements were carried out in 6×50 mm culture tubes, using a total volume of 0.3 ml, and were started by injection of 5-20 μl of mitochondria or cells. A SAI model 3000 integrating photometer was employed, with AJD sampling at 0.4 seconds intervals driven by Asyst software. Values were transformed into corresponding Ca^2+ concentrations by computer assisted calculations based upon published calibration methods (Allen et al., 1977 Science 195:996; Brini et al., 1995 J. Biol. Chem. 270:9896). For each value, the ratio of observed luminescence (L) to the potential luminescence remaining (Lmax) was calculated, and compared to a calibration curve which relates this ratio to the free Ca^2+ concentration. Thus, complete calibrated progress curves were generated. The total luminescence available initially (Ltotal) must be known and was determined in separate experiments, wherein a saturating Ca^2+ concentration (20 μM) is employed to discharge the aequorin completely. This value allows Lmax to be calculated at any time, as Ltotal minus the sum of luminescence that already occurred.
The calibration data were obtained at an ionic strength of 335 mM and in the presence of 1 mM Mg^2+, to mimic conditions in the mitochondrial matrix, because both factors influence the affinity of aequorin for Ca2+ (Cobbold et al., 1987 Biochem. J. 248:313). Luminescence values were corrected for low background values that are obtained when Ca^2+ is absent before conducting further calculations.

For data set [2] the following is noted: Yuchi et al., 1993; cited from earlier work.
A short description of data set [3]: Esterase cleavage of divalent cation-sensitive indicator molecule precursors (fluorescence). The data set is classed as biochemical. The conditions noted are these: precursor 1 μg/ml, sonicated E. coli expressing the esterase. The text has this:
Standard molecular biology procedures were used (Sambrook et al., 1989 Molecular Cloning: A Laboratory Manual, Cold Spring Harbor Laboratory Press, Cold Spring Harbor, N.Y.). All reagents were from Sigma (St. Louis, Mo.) unless otherwise indicated. E. coli cells expressing esterases from several sources: B. subtilis para-nitrobenzyl esterase from plasmid PNB106R (Zock et al., 1994) (SEQ ID NO:1; SEQ ID NO:7); Acinetobacter areA expressed in E. coli strain BL21(DE3) (SEQ ID NO:2; from plasmid pADPW40, Jones et al. 1999 J. Bacteriol. 181:4568, obtained from Drs. R. Jones and P. Williams, Univeristy of Wales Bangor, UK); Acinetobacter SalE expressed in E. coli strain BL21(DE3) (SEQ ID NO:3; from plasmid pADPW70, Jones et al. 2000 J. Bacteriol. 1832:2018, also obtained from Drs. R. Jones and P. Williams, Univeristy of Wales Bangor, UK) were grown in 10 mL of standard LB media plus ampicillin (100 μg/ml) at 37° C. Tetracycline (10 μg/ml) was present instead of ampicillin for the cells expressing B. subtilis para-nitrobenzyl esterase. For strains expressing all proteins except para-nitrobenzyle esterase, the cells were grown to an OD (λ=600 nm) of 0.6 and protein expression was induced by administration of […] IPTG for 4 hours until the culture reached an OD600 of ˜1.0. Cells expressing para-nitrobenzylesterase were grown at 30° C. and protein expression was induced by a temperature shift to 40° C. for 6 hours. The cells attained an OD600 of ˜1.0. Cells were washed, pelleted by centrifugation, and then resuspended in 0.5 ml of cold 0.12 M Tris Cl, pH 8.0. Cells were sonicated for ten seconds and then incubated on ice for ten seconds. This sonication step was repeated eight times.
For fluorescence measurements, a volume of 50 μl of the sonicated cell suspension was placed in 3.0 ml of 0.1 M KCl, 50 uM EGTA, 20 mM HEPES pH 7.40. As a divalent cation-sensitive indicator molecule, one of the following compounds (all from Molecular Probes, Inc., Eugene, Oreg.) was present at a final concentration of 1 μg/ml: BCECF AM (BCECF (2′,7′-bis-(2-carboxyethyl)-5-(and-6)-carboxyfluorescein), a proton indicator used as an esterase-cleavable control), Rhod-2 AM, Fluo-3 AM, Indo-1 AM, or Fura-2 AM. To monitor detection of divalent cation using the divalent cation-sensitive indicator molecules generated by esterase cleavage of the precursor forms, each reaction was made 2 mM CaCl2 The wavelengths used for the indicator dyes were as follows: Fluo-3, excitation 488 nm, emission 520 nm; Rhod-2, excitation 540 nm, emission 580 nm; Indo-1 AM, excitation 338 nm, emission scan […]; Fura-2, excitation scan 250-450 nm, emission 510 nm; BCECF, excitation 440 nm, emission 550 nm.

Regarding `CNc1ccc2oc(C[C@H]3O[C@@]4(CC[C@H]3C)O[C@H]([C@H](C)C(=O)c3ccc[nH]3)[C@H](C)C[C@H]4C)nc2c1C(=O)O` [A23187], the “additional luminescence when added after the response to ETH 129” value in the data set on intact yeast is on record as “absence of any additional luminescence”. Moreover, the “effect on matrix Ca^2+ concentration” value in data set [1] is recorded as “reduced the matrix Ca^2+ concentration below the detection limit”. As to `COc1cc(N(CC(=O)O)CC(=O)O)c2nc(COc3cc(C)ccc3N(CC(=O)O)CC(=O)O)ccc2c1` [Quin-2], in data set [2], the “pKa^4” value is recorded as 6.25.

Turning to coelenterazine n, the “luminescence intensity as aequorin cofactor vs parent coelenterazine” value with intact yeast (FIG. 19B) was “comparable to that of the parent”.

B1: Para-nitrobenzyl esterase: B. subtilis para-nitrobenzyl esterase from plasmid PNB106R (SEQ ID NO:1; SEQ ID NO:7) (protein, listed as Bascillus subtilis)
chain: MTHQIVTTQYGKVKGTTENGVHKWKGIPYAKPPVGQWRFKAPEPPEVWEDVLDATAYGPICPQPSDLLSLSYTELPRQSEDCLYVNVFAPDTPSQNLPVMVWIHGGAFYLGAGSEPLYDGSKLAAQGEVIVVTLNYRLGPFGFLHLSSFDEAYSDNLGLLDQAAALKWVRENISAFGGDPDNVTVFGESAGGMSIAALLAMPAAKGLFQKAIMESGASRTMTKEQAASTAAAFLQVLGINESQLDRLHTVAAEDLLKAADQLRIAEKENIFQLFFQPALDPKTLPEEPEKSIAEGAASGIPLLIGTTRDEGYLFFTPDSDVHSQETLDAALEYLLGKPLAEKAADLYPRSLESQIHMMTDLLFWRPAVAYASAQSHYAPVWMYRFDWHPEKPPYNKAFHALELPFVFGNLDGLERMAKAEITDEVKQLSHTIQSAWITFAKTGNPSTEAVNWPAYHEETRETVILDSEITIENDPESEKRQKLFPSKGE
As to B1, the “hydrolysis of indicator precursors (AM esters) to Ca^2+-sensitive indicator molecules” value (“hydrolysis of indicator precursors” below) in data set [3] was “detectably hydrolyzed all divalent cation-sensitive indicator molecule precursors that were tested”.

B2: SalE esterase: Acinetobacter SalE esterase expressed in E. coli BL21(DE3) (SEQ ID NO:3) (protein, listed as Acinetobacter sp.)
chain: MITYVLVHGSWHDGSLWEPVATHLRAQGHTVHCPTVAGHGPNADRNVTHAQCSQSIADYIVKHDLSEIVLLGHSYGGTIISKVAEAIPERIQRLIYWNAFVLQDGENMFDNMPEAYYELFTSLAAASGDNTVLLPYEVWRHAFINDADDQMAEETYKMLTPEPCQPFHDRLDLKKFYTLNIPKSYLNCTEDQALPAGFWHPKMSNRLGEFKLVEMGGSHEAMFTRPQELATKIIEASHD
Take B2: the “hydrolysis of indicator precursors” value in data set [3] was “no apparent Ca^2+ sensitivity was detected”.

B3: areA: Acinetobacter areA esterase expressed in E. coli BL21(DE3) (SEQ ID NO:2) (protein, listed as Acinetobacter sp.)
chain: MLQSLDPQLASFFAMLENQGAPAFDIGTLNDPNINEMRNWYLNFGPHVAGQFIELQDVEDLWIQVDDGSLRLRLYKTQRQHSESCETLIYFHGGGWCIGSIETHDLLCRHLVNDLDVNVISVDYRLAPEYPYPQAAHDAIHATQWIFEHASALGIHPDHLYVAGDSAGGNLAAITALTFKEQTYRTSLAGQILIYPCIDLTVIHDNKYPSFEKQKLTPPLSAEQMSKMIQIYLKNEDFAYQWLASPLLAQSHQHLPSTLIITAEFDPLHDQGCVYFEKLKSSLVNTEYHEIKGVVHGFFEMYGVLNKTKETINIIRAWLKNNTKSK
As for B3, the “hydrolysis of indicator precursors” value in data set [3] is “rate of hydrolysis appeared to be significantly slower”.

B4: HD-1 esterase: HD-1 esterase from an oil degrading bacterium (SEQ ID NO:4) (protein)
chain: MTLDAQAKAILDQIARSPMPKLHQVPASVARQMFEISCKLTEIKNLPIGRVEDRVIPGPDDTELPIRIYTPVAAPPGPLPVLVFFHGGGFVIGSLDSHDAPCRLIANEARCLVVSVDYRLAPENRFPAAVDDCLAAVTWVARNAAEINADPTRIAVGGDSAGGNLSAVVSQQLRDAGGPKIVFQLLIYPATDALHEGLSRTSNAEGYMLDKDLMSWFFAQYLGDGGGVDLADPRFSPLRHANLGNLGTIHVVVAGFDPLRDEGIAYAEALKAAGNKVTLSEFKGQIHGFCSMAGVIEAGRTALVEGAALLKEAFAQA
modifications: Sequence encoding petroleum-degrading bacterium esterase.
As for B4, the “hydrolysis of indicator precursors” value in data set [3] is “Slow hydrolyses of Fura-2 AM and Indo-1 AM”.
